According to ChEMBL document CHEMBL3046362, “Synthesis, antioxidant evaluation, and quantitative structureactivity relationship studies of chalcones” (Med Chem Res, 2011):
The source made the active and inactive calls. The calls are words filed in the database; no cut-off is given here.

Columns and labels:
Format in all cases: functional
[1] = test system: Radical scavenging activity; experiment: Antioxidant activity assessed as DPPH radical scavenging activity at 50 ug/ml after 20 min
[2] = Antioxidant activity assessed as reducing power of potassium ferricyanide at 50 ug/ml after 20 min by spectrophotometry; set-up: scale not given: the % may be the effect or the level left
[3] = Antioxidant activity assessed as hydrogen peroxide radical scavenging activity at 50 ug/ml after 10 min by spectrophotometry
[4] = Antioxidant activity assessed as superoxide radical scavenging activity at 50 ug/ml after 10 min by NBT reduction assay
[5] = test system: Radical scavenging activity; experiment: Antioxidant activity assessed as DPPH radical scavenging activity at 100 to 250 ug/ml by EPR spectroscopy

| SMILES | Activity [1] | Activity [2] | Activity [3] | Activity [4] | Activity [5] |
| --- | --- | --- | --- | --- | --- |
| COc1ccc(/C=C/C(=O)c2cccc([N+](=O)[O-])c2)cc1OC | 15.4% | 43.5% | 35.9% | 53.4% | – |
| COc1ccc(/C=C/C(=O)c2cccc(O)c2)cc1 | 35.7% | 37.5% | 42.8% | 62% | Active |
| O=C1O[C@H]([C@@H](O)CO)C(O)=C1O | 28% | 22.6% | 78.3% | 82.9% | – |
| COc1ccc(/C=C/C(=O)c2ccc(Cl)cc2Cl)cc1OC | 15.7% | 33.8% | 23.8% | 32.6% | – |
| COc1ccccc1/C=C/C(=O)c1ccc([N+](=O)[O-])cc1 | 7% | 32.8% | 61.3% | 34.5% | – |
| CSc1ccc(/C=C/C(=O)c2cccc(O)c2)cc1 | 21.2% | 51.6% | 28.7% | 53.3% | – |
| O=C(/C=C/c1ccccc1)c1ccccc1 | 18.6% | 42.4% | 25.4% | 32.6% | – |
| COc1ccc(C(=O)/C=C/c2ccc(SC)cc2)cc1 | 2.64% | 24.3% | 29.5% | 17.8% | – |
| CN(C)c1ccc(/C=C/C(=O)c2ccccc2)cc1 | 8.08% | 9.52% | 12.1% | 13.8% | – |
| CSc1ccc(/C=C/C(=O)c2ccc([N+](=O)[O-])cc2)cc1 | 15.9% | 3.17% | 4.61% | 17.4% | – |
| COc1ccc(/C=C/C(=O)c2cccc([N+](=O)[O-])c2)c(OC)c1 | 7.9% | 26.5% | 5.91% | 23.1% | – |
| COc1ccc(/C=C/C(=O)c2ccccc2)cc1 | 5.34% | 21.2% | 12.3% | 21.3% | – |
| CSc1ccc(/C=C/C(=O)c2cccc([N+](=O)[O-])c2)cc1 | 15.3% | 27.2% | 46.4% | 39.7% | – |
| CSc1ccc(/C=C/C(=O)c2ccc(Cl)cc2)cc1 | 23.2% | 30.9% | 43.5% | 41.4% | – |
| CSc1ccc(/C=C/C(=O)c2ccc(Cl)cc2Cl)cc1 | 4.07% | 10.1% | 17.4% | 30.9% | – |
| CSc1ccc(/C=C/C(=O)c2ccc(O)cc2)cc1 | 28.9% | 46% | 23.8% | 52.6% | – |
| COc1ccccc1/C=C/C(=O)c1ccccc1 | 0.98% | 21.8% | 4.54% | 18.6% | – |
| CSc1ccc(/C=C/C(=O)c2ccccc2O)cc1 | 15.4% | 46.7% | 33.3% | 50.2% | – |
| COc1ccccc1/C=C/C(=O)c1cccc([N+](=O)[O-])c1 | 6.93% | 22.4% | 24.3% | 5.39% | – |
| CSc1ccc(/C=C/C(=O)c2ccc(C)cc2)cc1 | 3.16% | 23.8% | 31.7% | 23.1% | – |
| COc1cc(/C=C/C(=O)c2ccccc2)cc(OC)c1OC | 15.6% | 40.6% | 22.7% | 28.9% | – |
| COc1ccc(/C=C/C(=O)c2ccc(C)cc2)cc1 | 1.3% | 23.1% | 4.54% | 15.4% | – |
| Cc1cc(C(C)(C)C)c(O)c(C(C)(C)C)c1 | 26.4% | 56.1% | 42.6% | 79.1% | – |
| CSc1ccc(/C=C/C(=O)c2ccc(Br)cc2)cc1 | 18% | 18.8% | 49.7% | 18% | – |
| CN(C)c1ccc(/C=C/C(=O)c2ccc(Cl)cc2Cl)cc1 | 12.9% | 22% | 32.6% | 10.9% | – |
| CN(C)c1ccc(/C=C/C(=O)c2cccc([N+](=O)[O-])c2)cc1 | 18.6% | 28.6% | 17.4% | 39% | – |
| CSc1ccc(/C=C/C(=O)c2ccccc2)cc1 | 10.2% | 19.8% | 4.26% | 27.4% | – |
